Results on six molecules are retold here after paper PMC10896388, “Hybrid Allosteric Modulators of M1 Muscarinic Receptors Enhance Acetylcholine Efficacy and Decrease Locomotor Activity and Turning Behaviors in Zebrafish” (Research Square, 2024).

Broadly, the Kd is the equilibrium constant for the complex coming apart. A lower Kd goes with higher affinity. By EC50 is commonly meant the concentration needed to bring the measured effect to its halfway point.

“Also recorded” adds a separate entry of the source. Where two headings read alike, the source gives them in different places.

Data set [1] addresses T1, human M1 muscarinic receptors (Homo sapiens, UniProt P11229).
T1 sequence (P11229 1-460): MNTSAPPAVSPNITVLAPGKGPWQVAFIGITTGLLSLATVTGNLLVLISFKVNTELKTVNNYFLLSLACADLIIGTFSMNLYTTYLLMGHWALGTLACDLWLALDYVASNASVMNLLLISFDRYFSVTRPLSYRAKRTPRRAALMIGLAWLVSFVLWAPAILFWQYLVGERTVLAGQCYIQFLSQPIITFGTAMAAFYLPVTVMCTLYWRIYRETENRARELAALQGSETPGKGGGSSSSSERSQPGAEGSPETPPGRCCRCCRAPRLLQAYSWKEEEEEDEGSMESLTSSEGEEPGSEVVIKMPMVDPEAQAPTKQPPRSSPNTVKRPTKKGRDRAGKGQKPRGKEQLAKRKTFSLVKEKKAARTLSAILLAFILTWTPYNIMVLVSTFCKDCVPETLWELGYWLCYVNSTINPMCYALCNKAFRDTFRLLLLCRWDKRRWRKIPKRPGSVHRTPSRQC
Description: [3H]-arachidonic acid release in CHO cells expressing M1 receptors, with and without ACh. Format: cell-based. Also on record: expressed in transfected cells; host or cells: CHO cells (stably transfected CHO-hM1, from Mark Brann's laboratory, NIH). To be noted: for intrinsic agonist activity (in words): [3H]AA release in the absence of ACh, 10 µM; for modulation of ACh response (in words): modulators at 10 µM (amiodarone 30 µM). As for the experimental part:
CHO cells expressing human M1 muscarinic receptors were cultured at 37°C in a 5% CO2 atmosphere in F12 medium supplemented with 5% fetal bovine serum, 100 units/mL penicillin, and 100µg/mL streptomycin. These cells were obtained from Mark Brann’s laboratory when they were at NIH and have been in use by us and others for many years.[49]
Measurement of [^3H]AA release was performed as described in Stahl and Ellis.[24] Stably transfected CHO-hM1 cells were seeded on 24-well plates (Greiner Bio-One GmbH, Frickenhausen, Germany) at a density of 5.0 × 10^4 cells/well in 0.5 ml of F-12 medium. Cells were incubated until they attached (approximately 3 h), followed by the addition of [^3H]AA to a final concentration of 0.05 µCi of [^3H]AA per well. The cells were then grown for 16 to 20 h before the assay was performed. [^3H]AA release was measured in Eagle’s basal medium with 20 mM HEPES and 2 mg/ml fatty acid-free bovine serum albumin (EM-BSA). Cells were rinsed twice with EM-BSA, followed by the addition of EM-BSA media containing experimental agents and incubated for 1 h at 37°C. The assay was terminated by aspiration of the media, and the amount of [^3H]AA released was determined by liquid scintillation counting (Beckman-Coulter LS6500). […]
Tabulated [^3H]AA release data are represented as a fraction of maximal release elicited by ACh or as the fraction of release elicited by the relevant concentration of ACh alone, as indicated. Dose-response curves were normalized to the maximal response of ACh without allosteric ligand. Where indicated, response curves were analyzed using the empirical four-parameter equation: […] where X is the concentration of the ligand used, Y is the amount of response, C50 is the concentration of the ligand that produces 50% of the maximal effect, Top and Bottom are the top and bottom plateaus of the curve, and n is related to the Hill slope for the curve. Where indicated, families of response curves were analyzed according to an allosteric operational model:[50],[51]

In data set [2] the test system is wild-type (AB) zebrafish (Danio rerio). The format is in vivo. To be noted: zebrafish larvae; 30-minute spontaneous swimming period; mean ± s.e.m., N = 12; test concentration not given.
For data set [3] the test system is unchanged. Description: Maximum tolerated concentration (MTC) determination in zebrafish larvae. The conditions noted are these: for MTC (maximum tolerated concentration): 5 dpf zebrafish larvae, after 24-hr exposure; for signs of toxicity (in words): zebrafish, concentrations up to 30 μM, the highest concentration tested. Format: in vivo. The method, then: Determination of maximum tolerated concentration (adapted from Berghmans)[52] was completed by placing 5 days post fertilization (dpf) wild-type zebrafish larvae in a 24 well plate at 6 fish per well, and one compound concentration per well. […] Death was determined by the absence of heartbeat. Additional endpoints were used to assess toxicity at non-lethal concentrations such as startle capacity (poke stimulus), abnormalities in swimming behavior (loss of dorsoventral balance), and gross morphological deformities (bent body). […] The MTC determination was used to select three doses of each compound (low, medium, high dose) to be used in behavioral assays.

Data set [4] has the same test system. Nature of the data set: animal or person. The format is in vivo. To be noted: for effect on locomotor activity and turning behaviors (in words) / concentration with significant effects on zebrafish behavior: AB zebrafish; for effect on locomotor activity and turning behaviors (in words): 30-minute spontaneous swimming period; for concentration with significant effects on zebrafish behavior: compared with BQCA; for EC50: Danio rerio, AB zebrafish larvae; for Therap. Index: zebrafish, apparently MTC / MEC. The method, then: The movement of larval zebrafish was monitored with the Noldus behavior recording system (Noldus Information Technology, Leesburg VA) and quantified using EthoVision® XT 15 software (Noldus Information Technology, Leesburg VA). Five-dpf zebrafish larvae were exposed to a range of nonlethal concentrations of compounds in a 24-well plate with appropriate controls. The plate was immediately placed in the incubator for a 30-minute exposure period. After 30 minutes, the plate was transferred to the Noldus system and swimming behavior was recorded in 100% light for 30 minutes to measure spontaneous swimming behavior. The light was switched off for 10 minutes (dark period) and then switched on for 10 minutes (light period), which was then repeated for two additional cycles. In total, the larvae were exposed to three cycles of alternating 10-minute dark and light periods (100% darkness-to-100% light). Each drug challenge was conducted on three separate plates with n = 6 larvae/dose/plate.
Absolute turn angle (TA) and angular velocity provided measures of the extent of turning behavior, while the intra-individual variance of turn angle quantified how consistently (low variance) or inconsistently (high variance) fish turned. A lowered intra-individual variance of turning reflected repeatedly performing the same turning behavior, a stereotypy.[53]
All data for exposure and the behavioral end points were analyzed by one-way ANOVA (factor: drug concentration) followed by a Dunnett’s multiple comparisons test for post hoc significance between drug concentration and control group. Statistically significant differences are noted as follows; *, p < 0.05; **, p < 0.01; ***, p < 0.001.

In data set [5] the target is T1, human M1 muscarinic receptors. Nature of the data set: Full ACh dose-response curves of [3H]AA release fitted to an allosteric operational model.
Description: Tabulated [^3H]AA release data are represented as a fraction of maximal release elicited by ACh or as the fraction of release elicited by the relevant concentration of ACh alone, as indicated. Dose-response curves were normalized to the maximal response of ACh without allosteric ligand. Where indicated, response curves were analyzed using the empirical four-parameter equation: Y=Top+Bottom−Top/1+X/C50^n where X is the concentration of the ligand used, Y is the amount of response, C50 is the concentration of the ligand that produces 50% of the maximal effect, Top and Bottom are the top and bottom plateaus of the curve, and n is related to the Hill slope for the curve. Where indicated, families of response curves were analyzed according to an allosteric operational model:[50],[51]
where EM is the maximal response; A is the concentration of ACh; B is the concentration of the allosteric ligand; τA and τB represent the operational efficacies of A and B, respectively; KA and KB are the equilibrium dissociation constants of A and B; and α and β represent the cooperativities between A and B in terms of binding and activation, respectively. Curve-fitting was carried out with GraphPad Prism, version 5.0 or 6.0 (San Diego CA).
Setting [6] is: best-fit parameter, allosteric operational model, Em set to 2.0, ACh as agonist.
Where [7] appears, read: read-out: EC50 for decreasing locomotor activity.
The mark [8] stands for this setting: read-out: EC50 for decreasing repetitive behaviors (increasing angular velocity).

On to `CCCCc1oc2ccccc2c1C(=O)c1cc(I)c(OCCN(CC)C(=O)c2ccccc2)c(I)c1` [Compound 5b, N-(2-(4-(2-butylbenzofuran-3-carbonyl)-2,6-diiodophenoxy)ethyl)-N-ethylbenzamide], for which the “intrinsic agonist activity (in words)” value in data set [1] is listed as “lacked intrinsic activity”. In addition, in data set [1] ([3H]AA release, CHO-hM1, predominantly at higher doses of ACh (Table 2, not available)), the “increase in mAChR activity compared to treatment with ACh alone” value was found to be 80%. Further, in data set [2], the “Angular Velocity, percentage change relative to controls” value worked out at 80.4 ± 11.5%; the “Distance Moved, percentage change relative to controls” value turned out to be 87.7 ± 13.5%; the “Variance Turn Angle, percentage change relative to controls” value came out at 77.8 ± 9.3%. In addition, the “MTC (maximum tolerated concentration)” value in data set [3] was 10 µM.
With `CCN(CC)CCOc1ccc(CN2C(=O)C(=O)c3ccccc32)cc1` [Compound 7, 1-(4-(2-(diethylamino)ethoxy)benzyl)indoline-2,3-dione], the “effect on locomotor activity and turning behaviors (in words)” value in data set [4] was “not effective in reducing locomotor activity or elevating angular velocity or variance of turn angle”. In addition, the “intrinsic agonist activity (in words)” value in data set [1] is “lacked intrinsic activity”. In data set [1] ([3H]AA release, CHO-hM1), the “modulation of ACh response (in words)” value was “primarily decreased potency and slightly enhanced the efficacy of ACh activity; also recorded: decreased ACh potency with little impact on ACh efficacy”. In addition, in data set [5], the Kd is 631 nM. For the same molecule, in data set [5] (setting [6]), the “Activation cooperativity, A-B, β” value is 0.99 ± 0.12; the “Binding cooperativity, A-B, α” value amounted to 0.18 ± 0.095; the “Operational Efficacy-B, τB” value turned out to be 0.032 ± 0.02. Also, the “MTC (maximum tolerated concentration)” value in data set [3] came to 10 µM.
With `COc1c(I)cc(CN2C(=O)C(=O)c3ccccc32)cc1I` [Compound 8a, 1-(3,5-diiodo-4-methoxybenzyl)indoline-2,3-dione], in data set [4], the “effect on locomotor activity and turning behaviors (in words)” value is reported as “reduced locomotor activity”; the “concentration with significant effects on zebrafish behavior” value is on record as 1 µM; the “Therap. Index” value was above 100. Besides, the EC50 in data set [4] (setting [7]) was 5600 nM. For the same molecule, the EC50 in data set [4] (setting [8]) was determined as 2600 nM. In addition, in data set [1] ([3H]AA release, CHO-hM1), the “modulation of ACh response (in words)” value is “significant enhancement of ACh activity; also recorded: dramatically enhanced ACh efficacy”. Also, in data set [5], the Kb stood at 550 nM and binding was characterised by a dissociation constant (Kd) of 550 nM. Also, in data set [5] (setting [6]), the “Binding cooperativity, A-B, α” value was found to be 0.69 ± 0.24 and the “Operational Efficacy-B, τB” value was 0.17 ± 0.03. Besides, in data set [3], the “MTC (maximum tolerated concentration)” value is listed as above 30 µM and the “signs of toxicity (in words)” value is “neither produced any signs of toxicity”.
In the case of `COc1c(Br)cc(CN2C(=O)C(=O)c3ccccc32)cc1Br` [Compound 8c, 1-(3,5-dibromo-4-methoxybenzyl)indoline-2,3-dione], the “concentration with significant effects on zebrafish behavior” value in data set [4] is 1 µM. For the same molecule, the EC50 in data set [4] (setting [7]) stood at 1000 nM. Also, the EC50 in data set [4] (setting [8]) is 1100 nM. The “modulation of ACh response (in words)” value in data set [1] ([3H]AA release, CHO-hM1) is listed as “dramatically enhanced ACh efficacy”. In data set [5], the Kb was 3000 nM and the Kd was 2950 nM. Moreover, in data set [5] (setting [6]), the “Binding cooperativity, A-B, α” value came to 0.98 ± 0.39 and the “Operational Efficacy-B, τB” value stood at 0.33 ± 0.06. Moreover, in data set [3], the “MTC (maximum tolerated concentration)” value is reported as above 30 µM and the “signs of toxicity (in words)” value is on record as “neither produced any signs of toxicity”.
For `CCCCc1oc2ccc(NS(C)(=O)=O)cc2c1C(=O)c1ccc(OCCCN(CCCC)CCCC)cc1` [Dronedarone, reference compound], in data set [4], the “Therap. Index” value is 1. Also, the “0.1 µM ACh: response with modulator present divided by response to ACh alone” value in data set [1] (modulator 10 µM, 0.1 µM ACh, CHO-hM1, mean ± s.e.m.) was found to be 0.25 ± 0.05. Moreover, in data set [1] (modulator 10 µM, 100 µM ACh, CHO-hM1, mean ± s.e.m.), the “100 µM ACh: response with modulator present divided by response to ACh alone” value is 0.75 ± 0.07. Further, the “No ACh: agonist effect of the allosteric ligand by itself, fraction of the maximal response that could be elicited by ACh” value in data set [1] (modulator 10 µM, no ACh, CHO-hM1, mean ± s.e.m., at least 4 determinations) is 0.08 ± 0.01. Moreover, in data set [3], the “MTC (maximum tolerated concentration)” value turned out to be 10 µM.
Consider VU0238408 [reference compound], for which, in data set [4] (zebrafish larvae, locomotor behaviors, abbreviation not defined in the paper), the MEC is 1 µM. Also, in data set [4], the “Therap. Index” value was 30. Further, in data set [2], the “Angular Velocity, percentage change relative to controls” value is reported as 180.1 ± 20.3 %; the “Distance Moved, percentage change relative to controls” value is 34.6 ± 4.0 %; the “Variance Turn Angle, percentage change relative to controls” value is recorded as 146.6 ± 12.4 %. Also, the “MTC (maximum tolerated concentration)” value in data set [3] is recorded as 30 µM.
